Reference: paper PMC9120017, “Inhibition mechanism of the chloride channel TMEM16A by the pore blocker 1PBC” (Nature Communications, 2022)
Read-outs that look alike come from different tables or passages of the source.

Biological target: T1, mouse TMEM16A mutant V511A (Mus musculus, UniProt Q8BHY3, V511A)
T1 construct: expressed in transfected cells; host or cells: HEK293T
T1 sequence (Q8BHY3 1-960 V511A): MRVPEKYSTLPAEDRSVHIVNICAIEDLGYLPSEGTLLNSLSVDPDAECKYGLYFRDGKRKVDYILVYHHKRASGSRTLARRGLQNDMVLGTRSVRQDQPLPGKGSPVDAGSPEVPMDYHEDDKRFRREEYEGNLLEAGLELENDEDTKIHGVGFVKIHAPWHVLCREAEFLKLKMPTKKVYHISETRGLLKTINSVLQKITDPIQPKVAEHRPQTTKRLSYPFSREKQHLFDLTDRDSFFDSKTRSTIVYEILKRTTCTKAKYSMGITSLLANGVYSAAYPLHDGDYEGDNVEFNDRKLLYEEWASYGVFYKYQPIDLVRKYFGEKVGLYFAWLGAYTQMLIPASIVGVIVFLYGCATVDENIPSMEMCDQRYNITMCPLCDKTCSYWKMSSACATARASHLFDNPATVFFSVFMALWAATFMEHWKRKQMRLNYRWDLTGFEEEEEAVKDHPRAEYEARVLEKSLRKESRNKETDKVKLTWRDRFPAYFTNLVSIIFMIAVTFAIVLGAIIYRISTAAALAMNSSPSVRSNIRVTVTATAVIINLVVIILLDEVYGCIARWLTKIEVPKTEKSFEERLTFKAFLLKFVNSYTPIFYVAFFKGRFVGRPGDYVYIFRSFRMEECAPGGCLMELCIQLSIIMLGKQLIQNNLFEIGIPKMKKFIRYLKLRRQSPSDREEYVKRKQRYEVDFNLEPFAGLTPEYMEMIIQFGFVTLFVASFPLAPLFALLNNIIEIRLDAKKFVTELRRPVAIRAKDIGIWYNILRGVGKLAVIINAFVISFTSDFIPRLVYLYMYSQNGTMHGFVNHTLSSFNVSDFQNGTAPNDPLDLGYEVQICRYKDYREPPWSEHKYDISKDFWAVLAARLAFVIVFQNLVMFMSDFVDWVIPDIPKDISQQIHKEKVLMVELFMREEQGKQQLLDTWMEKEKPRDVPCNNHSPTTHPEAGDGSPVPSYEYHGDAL
Assay: Inside-out patch recording of 1PBC block, mutant V511A
Format: cell-based
Conditions: for remaining activity at 3 µM: 1PBC 3; for remaining activity at 3 µM / remaining activity at 10 µM / remaining activity at 30 µM / remaining activity at 100 µM: read-out: fraction of unblocked current; for remaining activity at 10 µM: 1PBC 10; for remaining activity at 30 µM: 1PBC 30; for remaining activity at 100 µM: 1PBC 100
Procedure: HEK293T cells (ATCC CRL-1573) were maintained in Dulbecco’s modified Eagle’s medium (DMEM; Sigma-Aldrich) supplemented with 10 U ml^−1 penicillin, 0.1 mg ml^−1 streptomycin (Sigma-Aldrich), 2 mM L-glutamine (Sigma-Aldrich), and 10% FBS (Sigma-Aldrich) in a humidified atmosphere containing 5% CO2 at 37 °C. HEK293S GnTI^− cells (ATCC CRL-3022) were maintained in HyClone HyCell TransFx-H medium (GE Healthcare) supplemented with 10 U ml^−1 penicillin, 0.1 mg ml^−1 streptomycin, 4 mM L-glutamine, 0.15% poloxamer 188 (Sigma-Aldrich), and 1% FBS in an atmosphere containing 5% CO2 at 185 rpm at 37 °C. The ac splice variant of mouse TMEM16A (UniProt ID: Q8BHY3), mouse TMEM16B (UniProt ID: Q8CFW1), or mouse TMEM16F (UniProt ID: Q6P9J9) bearing a 3C cleavage site, a Venus YFP, a Myc tag, and a Streptavidin-binding peptide (SBP) downstream of the open reading frame in a modified pcDNA3.1 vector (Invitrogen) were used as described previously[21],[31]. Mutations were introduced using a modified QuikChange method[58] and were verified by sequencing.
HEK293T cells were transfected with 3–4 μg DNA per 6 cm Petri dish using the calcium phosphate co-precipitation method and were used within 24–96 h after transfection. Recordings were performed on inside-out patches excised from HEK293T cells expressing the construct of interest. Patch pipettes were pulled from borosilicate glass capillaries (O.D. 1.5 mm, I.D. 0.86 mm, Sutter Instrument) and were fire-polished with a microforge (Narishige) before use. Pipette resistance was typically 3–8 MΩ when filled with the recording solutions detailed below. Seal resistance was typically 4 GΩ or higher. Voltage-clamp recordings were made using Axopatch 200B, Digidata 1550, and Clampex 10.7 (Molecular Devices). Analog signals were filtered with the in-built 4-pole Bessel filter at 10 kHz and were digitized at 20 kHz. Solution exchange was achieved using a gravity-fed system through a theta glass pipette mounted on an ultra-fast piezo-driven stepper (Siskiyou). […] All recordings were performed at 20 °C.
A symmetrical ionic condition was used throughout. Stock solution with Ca^2+-EGTA contained 150 mM NaCl, 5.99 mM Ca(OH)2, 5 mM EGTA, and 10 mM HEPES at pH 7.40. Stock solution with EGTA contained 150 mM NaCl, 5 mM EGTA, and 10 mM HEPES at pH 7.40. Free Ca^2+ concentrations were adjusted by mixing the stock solutions at the required ratios calculated using the WEBMAXC program (http://web.stanford.edu/~cpatton/webmaxcS.htm). Patch pipettes were filled with the stock solution with Ca^2+-EGTA, which has a free Ca^2+ concentration of 1 mM. 1PBC (ChemBridge) stock was reconstituted in anhydrous DMSO (Sigma-Aldrich) at 100 mM and stored at −20 °C. Working solutions with 1PBC were prepared by serial dilution. Unless otherwise stated, experiments were performed at a saturating Ca^2+ concentration as shown in Supplementary Table 1 and the primary data were corrected for current rundown as described previously[21],[25].
Concentration-response relations, obtained from the ratio of the I-V plots before and after the application of the blocker, were fitted to the Hill equation,1 I/Imax=1/1+IC50/[blocker]^h where I/Imax is the normalized current responses, IC50 defines the concentration at which inhibition is at its half-maximum, and h is the Hill coefficient.

N#Cc1c(C(F)(F)F)cc(O)n2c1nc1ccccc12 [1PBC]
IC50 (0 mV, 2 µM Ca2+): 20.8 µM
remaining activity at 3 µM (0 mV): 87.8%
remaining activity at 3 µM (20 mV): 84.4%
remaining activity at 3 µM (40 mV): 80.2%
remaining activity at 3 µM (60 mV): 77.1%
remaining activity at 3 µM (80 mV): 73.1%
remaining activity at 3 µM (100 mV): 70.9%
remaining activity at 3 µM (120 mV): 69.6%
remaining activity at 3 µM (140 mV): 70.4%
remaining activity at 3 µM (-20 mV): 91.2%
remaining activity at 3 µM (-40 mV): 93%
remaining activity at 3 µM (-60 mV): 94.7%
remaining activity at 3 µM (-80 mV): 95.6%
remaining activity at 3 µM (-100 mV): 95.2%
remaining activity at 3 µM (-120 mV): 95.6%
remaining activity at 3 µM (-140 mV): 94.5%
remaining activity at 10 µM (0 mV): 68%
remaining activity at 10 µM (20 mV): 62.6%
remaining activity at 10 µM (40 mV): 56.1%
remaining activity at 10 µM (60 mV): 50.6%
remaining activity at 10 µM (80 mV): 45.9%
remaining activity at 10 µM (100 mV): 43.5%
remaining activity at 10 µM (120 mV): 41.9%
remaining activity at 10 µM (140 mV): 42.2%
remaining activity at 10 µM (-20 mV): 73.3%
remaining activity at 10 µM (-40 mV): 78.6%
remaining activity at 10 µM (-60 mV): 82.2%
remaining activity at 10 µM (-80 mV): 84.9%
remaining activity at 10 µM (-100 mV): 86.6%
remaining activity at 10 µM (-120 mV): 87%
remaining activity at 10 µM (-140 mV): 87.7%
remaining activity at 30 µM (0 mV): 40.9%
remaining activity at 30 µM (20 mV): 35.2%
remaining activity at 30 µM (40 mV): 30.5%
remaining activity at 30 µM (60 mV): 26.5%
remaining activity at 30 µM (80 mV): 24%
remaining activity at 30 µM (100 mV): 22.5%
remaining activity at 30 µM (120 mV): 22.7%
remaining activity at 30 µM (140 mV): 23.4%
remaining activity at 30 µM (-20 mV): 46.5%
remaining activity at 30 µM (-40 mV): 52.4%
remaining activity at 30 µM (-60 mV): 58.4%
remaining activity at 30 µM (-80 mV): 63.9%
remaining activity at 30 µM (-100 mV): 68.3%
remaining activity at 30 µM (-120 mV): 71.3%
remaining activity at 30 µM (-140 mV): 72.9%
remaining activity at 100 µM (0 mV): 16.5%
remaining activity at 100 µM (20 mV): 13.8%
remaining activity at 100 µM (40 mV): 11.5%
remaining activity at 100 µM (60 mV): 10.1%
remaining activity at 100 µM (80 mV): 9.26%
remaining activity at 100 µM (100 mV): 9.4%
remaining activity at 100 µM (120 mV): 9.52%
remaining activity at 100 µM (140 mV): 9.88%
remaining activity at 100 µM (-20 mV): 19.3%
remaining activity at 100 µM (-40 mV): 23.1%
remaining activity at 100 µM (-60 mV): 28.5%
remaining activity at 100 µM (-80 mV): 33.3%
remaining activity at 100 µM (-100 mV): 37.9%
remaining activity at 100 µM (-120 mV): 41.7%
remaining activity at 100 µM (-140 mV): 44.8%
IC50 (20 mV, 2 µM Ca2+): 16.4 µM
IC50 (40 mV, 2 µM Ca2+): 12.8 µM
IC50 (60 mV, 2 µM Ca2+): 10.4 µM
log-fold IC50 (change of mutant vs WT) (80 mV): 0.5163
IC50 (80 mV, 2 µM Ca2+): 8.67 µM
IC50 (100 mV, 2 µM Ca2+): 7.86 µM
IC50 (120 mV, 2 µM Ca2+): 7.49 µM
IC50 (140 mV, 2 µM Ca2+): 7.71 µM
IC50 (-20 mV, 2 µM Ca2+): 26.3 µM
IC50 (-40 mV, 2 µM Ca2+): 33.3 µM
IC50 (-60 mV, 2 µM Ca2+): 42.3 µM
IC50 (-80 mV, 2 µM Ca2+): 52.4 µM
IC50 (-100 mV, 2 µM Ca2+): 62.9 µM
IC50 (-120 mV, 2 µM Ca2+): 72.1 µM
IC50 (-140 mV, 2 µM Ca2+): 79.5 µM
IC50 (V511A, V 0 mV): 20.8 µM
IC50 (V511A, V 20 mV): 16.4 µM
IC50 (V511A, V 40 mV): 12.8 µM
IC50 (V511A, V 60 mV): 10.4 µM
IC50 (V511A, V 80 mV): 8.67 µM
IC50 (V511A, V 100 mV): 7.86 µM
IC50 (V511A, V 120 mV): 7.49 µM
IC50 (V511A, V 140 mV): 7.71 µM
IC50 (V511A, V -20 mV): 26.3 µM
IC50 (V511A, V -40 mV): 33.3 µM
IC50 (V511A, V -60 mV): 42.3 µM
IC50 (V511A, V -80 mV): 52.4 µM
IC50 (V511A, V -100 mV): 62.9 µM
IC50 (V511A, V -120 mV): 72.1 µM
IC50 (V511A, V -140 mV): 79.5 µM
